One experiment addresses T1, CDK2 (Homo sapiens, UniProt P24941).
T1 construct: endogenous in cells; host or cells: MDA-MB-231
Nature of the experiment: CDK protein degradation activity (Western blotting), CDK2. The experiment is classed as cell-based. The conditions noted are these: MDA-MB-231 cells, 16 hours, Western blot. The method in brief:
(§1)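 Seed MDA-MB-231 cells; next day add compound to 100 nM, 1 μM or 10 μM final, or DMSO. After 16 h, harvest and lyse in Triton X-100 buffer, run SDS-PAGE, probe for CDK2, CDK9 and tubulin.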
Background: Immunoblotting shows a protein as a band on a membrane.

In a further experiment the target is T2, CDK9 (Homo sapiens, UniProt P50750).
T2 construct: endogenous in cells; host or cells: MDA-MB-231
T2 sequence (P50750 whole entry): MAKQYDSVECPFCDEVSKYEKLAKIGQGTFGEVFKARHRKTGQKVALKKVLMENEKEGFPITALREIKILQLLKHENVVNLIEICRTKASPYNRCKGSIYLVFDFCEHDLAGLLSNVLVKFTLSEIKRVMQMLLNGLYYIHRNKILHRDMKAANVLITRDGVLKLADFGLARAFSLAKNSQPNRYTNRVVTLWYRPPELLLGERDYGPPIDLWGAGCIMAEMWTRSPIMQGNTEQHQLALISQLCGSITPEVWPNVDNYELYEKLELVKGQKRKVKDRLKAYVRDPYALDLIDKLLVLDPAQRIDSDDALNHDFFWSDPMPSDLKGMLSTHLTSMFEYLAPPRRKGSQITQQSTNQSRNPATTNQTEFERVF
As to the kind of experiment: CDK protein degradation activity (Western blotting), CDK9. Conditions: MDA-MB-231 cells, 16 hours, Western blot. Type of experiment: cell-based. The method in brief: as §1

On to `N#Cc1cccc(C(=O)NC2CC(n3cnc4c(Nc5ccc(N6CCN(CC7CCN(C(=O)C8CCN(c9cc%10c(cc9F)C(=O)N([C@H]9CCC(=O)NC9=O)C%10=O)CC8)CC7)CC6)cc5)ncnc43)C2)n1` (some centres unmarked) [Compound 472, 6-cyano-N-((1s,3s)-3-(6-((4-(4-((1-(1-(2-(2,6-dioxopiperidin-3-yl)-6-fluoro-1,3-dioxoisoindolin-5-yl)piperidin-4-carbonyl)piperidin-4-yl)methyl)piperazin-1-yl)phenyl)amino)-9H-purin-9-yl)cyclobutyl)picolinamide], for which, on CDK2, the “Enzyme degradation CDK2 (% remaining) @ 0.1 μM” value was determined as 40%, the “Enzyme degradation CDK2 (% remaining) @ 1 μM” value was 40% and the “Enzyme degradation CDK2 (% remaining) @ 10 μM” value was found to be 50%. Further, at CDK9, the “Enzyme degradation CDK9 (% remaining) @ 0.1 μM” value is listed as 0/0/0%, the “Enzyme degradation CDK9 (% remaining) @ 1 μM” value is given as 0/0/0% and the “Enzyme degradation CDK9 (% remaining) @ 10 μM” value is 0/0/0%.

In the case of `O=C1CCC(N2C(=O)c3ccc(N4CCC(C(=O)N5CCN(CC6CCN(c7ccc(Nc8ncnc9c8ncn9[C@H]8C[C@@H](NC(=O)c9c(Cl)cccc9Cl)C8)cc7)CC6)CC5)CC4)cc3C2=O)C(=O)N1` (some centres unmarked) [Compound 474, 2,6-dichloro-N-((1s,3s)-3-(6-((4-(4-((4-(1-(2-(2,6-dioxopiperidin-3-yl)-1,3-dioxoisoindolin-5-yl)piperidin-4-carbonyl)piperazin-1-yl)methyl)piperidin-1-yl)phenyl)amino)-9H-purin-9-yl)cyclobutyl)benzamide], at CDK2, the “Enzyme degradation CDK2 (% remaining) @ 0.1 μM” value amounted to 20%, the “Enzyme degradation CDK2 (% remaining) @ 1 μM” value is given as 30% and the “Enzyme degradation CDK2 (% remaining) @ 10 μM” value was found to be 30%. Besides, on CDK9, the “Enzyme degradation CDK9 (% remaining) @ 0.1 μM” value is given as 10%, the “Enzyme degradation CDK9 (% remaining) @ 1 μM” value is given as 0% and the “Enzyme degradation CDK9 (% remaining) @ 10 μM” value is on record as 0%.

For the compound `O=C1CC[C@H](N2C(=O)c3cc(F)c(N4CCC(C(=O)N5CCN(CC6CCN(c7ccc(Nc8ncnc9c8ncn9[C@H]8C[C@@H](NC(=O)c9c(Cl)cccc9Cl)C8)cc7)CC6)CC5)CC4)cc3C2=O)C(=O)N1` [Compound 475, 2,6-dichloro-N-((1s,3s)-3-(6-((4-(4-((4-(1-(2-(2,6-dioxopiperidin-3-yl)-6-fluoro-1,3-dioxoisoindolin-5-yl)piperidin-4-carbonyl)piperazin-1-yl)methyl)piperidin-1-yl)phenyl)amino)-9H-purin-9-yl)cyclobutyl)benzamide], at CDK2, the “Enzyme degradation CDK2 (% remaining) @ 0.1 μM” value is 20/20/20%, the “Enzyme degradation CDK2 (% remaining) @ 1 μM” value is reported as 20/20/20% and the “Enzyme degradation CDK2 (% remaining) @ 10 μM” value was 20/20/20%. Besides, on CDK9, the “Enzyme degradation CDK9 (% remaining) @ 0.1 μM” value is given as 0/0/0%, the “Enzyme degradation CDK9 (% remaining) @ 1 μM” value is on record as 0/0/0% and the “Enzyme degradation CDK9 (% remaining) @ 10 μM” value was 0/0/0%.

As to `Cc1cccc(C(=O)N[C@H]2C[C@@H](n3cnc4c(Nc5ccc(N6CCN(CC7CCN(C(=O)C8CCN(c9cc%10c(cc9F)C(=O)N([C@H]9CCC(=O)NC9=O)C%10=O)CC8)CC7)CC6)cc5)ncnc43)C2)n1` [Compound 476, N-((1s,3s)-3-(6-((4-(4-((1-(1-(2-(2,6-dioxopiperidin-3-yl)-6-fluoro-1,3-dioxoisoindolin-5-yl)piperidin-4-carbonyl)piperidin-4-yl)methyl)piperazin-1-yl)phenyl)amino)-9H-purin-9-yl)cyclobutyl)-6-methylpicolinamide], at CDK2, the “Enzyme degradation CDK2 (% remaining) @ 0.1 μM” value was determined as 70% and the “Enzyme degradation CDK2 (% remaining) @ 10 μM” value is on record as 60%. At CDK9, the “Enzyme degradation CDK9 (% remaining) @ 0.1 μM” value is recorded as 50%, the “Enzyme degradation CDK9 (% remaining) @ 1 μM” value turned out to be 10% and the “Enzyme degradation CDK9 (% remaining) @ 10 μM” value is listed as 10%.

On to `Cc1cccc(C(=O)NC2CC(n3cnc4c(Nc5ccc(N6CCN(CC7CCN(C(=O)C8CCN(c9cc%10c(cc9F)C(=O)N([C@H]9CCC(=O)NC9=O)C%10=O)CC8)CC7)CC6)cc5C)ncnc43)C2)n1` (some centres unmarked) [Compound 477, N-((1s,3s)-3-(6-((4-(4-((1-(1-(2-(2,6-dioxopiperidin-3-yl)-6-fluoro-1,3-dioxoisoindolin-5-yl)piperidin-4-carbonyl)piperidin-4-yl)methyl)piperazin-1-yl)-2-methylphenyl)amino)-9H-purin-9-yl)cyclobutyl)-6-methylpicolinamide], for which, at CDK2, the “Enzyme degradation CDK2 (% remaining) @ 0.1 μM” value is listed as 20/20/20%, the “Enzyme degradation CDK2 (% remaining) @ 1 μM” value was 20/20/20% and the “Enzyme degradation CDK2 (% remaining) @ 10 μM” value was 20/20/20%. On CDK9, the “Enzyme degradation CDK9 (% remaining) @ 0.1 μM” value is 30/30/30%, the “Enzyme degradation CDK9 (% remaining) @ 1 μM” value is 30/30/30% and the “Enzyme degradation CDK9 (% remaining) @ 10 μM” value is reported as 30/30/30%.

As for `Cc1cccc(C(=O)NC2CC(n3cnc4c(Nc5ccc(N6CCN(CC7CCN(c8ccc9nnn([C@H]%10CCC(=O)NC%10=O)c(=O)c9c8)CC7)CC6)cc5C)ncnc43)C2)n1` (some centres unmarked) [Compound 478, N-((1s,3s)-3-(6-((4-(4-((1-(3-(2,6-dioxopiperidin-3-yl)-4-oxo-3,4-dihydrobenzo[d][1,2,3]triazin-6-yl)piperidin-4-yl)methyl)piperazin-1-yl)-2-methylphenyl)amino)-9H-purin-9-yl)cyclobutyl)-6-methylpicolinamide], on CDK2, the “Enzyme degradation CDK2 (% remaining) @ 0.1 μM” value turned out to be 10%, the “Enzyme degradation CDK2 (% remaining) @ 1 μM” value stood at 20% and the “Enzyme degradation CDK2 (% remaining) @ 10 μM” value turned out to be 20%. In addition, at CDK9, the “Enzyme degradation CDK9 (% remaining) @ 0.1 μM” value is recorded as 20/20/20%, the “Enzyme degradation CDK9 (% remaining) @ 1 μM” value is reported as 20/20/20% and the “Enzyme degradation CDK9 (% remaining) @ 10 μM” value is listed as 20/20/20%.

Take `O=C1CC[C@H](N2C(=O)c3ccc(N4CCN(CC=CCN5CCC6(CC5)CC(N5CCN(c7ccc(Nc8ncnc9c8ncn9C8CC(NC(=O)Cc9ccccc9)C8)cc7)CC5)C6)CC4)cc3C2=O)C(=O)N1` (some centres unmarked) [Compound 479, N-((1s,3s)-3-(6-((4-(4-(7-(4-(4-(2-(2,6-dioxopiperidin-3-yl)-1,3-dioxoisoindolin-5-yl)piperazin-1-yl)but-2-en-1-yl)-7-azaspiro[3.5]nonan-2-yl)piperazin-1-yl)phenyl)amino)-9H-purin-9-yl)cyclobutyl)-2-phenylacetamide]: at CDK2, the “Enzyme degradation CDK2 (% remaining) @ 0.1 μM” value is recorded as 50%, the “Enzyme degradation CDK2 (% remaining) @ 1 μM” value stood at 60% and the “Enzyme degradation CDK2 (% remaining) @ 10 μM” value is recorded as 60%. Also, at CDK9, the “Enzyme degradation CDK9 (% remaining) @ 0.1 μM” value stood at 30%, the “Enzyme degradation CDK9 (% remaining) @ 1 μM” value came to 20% and the “Enzyme degradation CDK9 (% remaining) @ 10 μM” value was found to be 20%.

Regarding “N-((1s,3s)-3-(6-((4-(4-(2-(1-(1-(2-(2,6-dioxopiperidin-3-yl)-1,3-dioxoisoindolin-5-yl)piperidin-4-carbonyl)piperidin-4-yl)ethyl)piperazin-1-yl)phenyl)amino)-9H-purin-9-yl)cyclobutyl)-2-phenylacetamide [Compound 404]”, at CDK2, the “Enzyme degradation CDK2 (% remaining) @ 0.1 μM” value is 50/50/50%, the “Enzyme degradation CDK2 (% remaining) @ 1 μM” value is 50/50/50% and the “Enzyme degradation CDK2 (% remaining) @ 10 μM” value is reported as 50/50/50%. Besides, at CDK9, the “Enzyme degradation CDK9 (% remaining) @ 0.1 μM” value is 0/0/0%, the “Enzyme degradation CDK9 (% remaining) @ 1 μM” value was 0/0/0% and the “Enzyme degradation CDK9 (% remaining) @ 10 μM” value was 0/0/0%.

Source of the values: patent publication US20260125382A1, “COMPOUNDS FOR INHIBITING OR DEGRADING CDK2 AND/OR CDK9 AND MEDICINAL USE THEREOF” (KOREA RESEARCH INSTITUTE OF CHEMICAL TECHNOLOGY, priority 2022, published 2026).
